Data reported in the NIST ThermoML archive (doi:10.1016/j.fluid.2014.09.014).

Test: refractive index (other wavelength) (dimensionless); xn = mol fraction of the nth substance listed
Settings: 101 kPa, Liquid, Standard Abbe refractometry

CC(C)OC(C)C [diisopropyl ether] + CC(C)O
refractive index
Settings	Wavelength=404.7 nm	Wavelength=435.8 nm	Wavelength=486.1 nm	Wavelength=546.1 nm	Wavelength=587.6 nm	Wavelength=589.3 nm	Wavelength=632.8 nm	Wavelength=644 nm	Wavelength=706.5 nm
308.15 K, x1 = 0.0277	1.38135	1.37835	1.37495	1.37214	1.37065	1.37059	1.36929	1.36899	1.36755
308.15 K, x1 = 0.0507	1.3813	1.3783	1.37488	1.37207	1.37059	1.37053	1.36924	1.36894	1.36748
308.15 K, x1 = 0.051	1.38124	1.37824	1.37483	1.37202	1.37053	1.37047	1.36917	1.36887	1.36742
308.15 K, x1 = 0.0717	1.38092	1.37792	1.37451	1.3717	1.37072	1.37014	1.36886	1.36856	1.36711
308.15 K, x1 = 0.1528	1.38023	1.37724	1.37384	1.371	1.36953	1.36947	1.3682	1.3679	1.36646
308.15 K, x1 = 0.1553	1.38023	1.37724	1.37384	1.371	1.36953	1.36947	1.3682	1.3679	1.36646
308.15 K, x1 = 0.1938	1.37994	1.37695	1.37356	1.37072	1.36925	1.36919	1.36792	1.36761	1.36617
308.15 K, x1 = 0.2029	1.3793	1.37665	1.37311	1.37028	1.3688	1.36875	1.36748	1.36718	1.36573
308.15 K, x1 = 0.245	1.37901	1.37603	1.37266	1.36984	1.36837	1.36832	1.36706	1.36676	1.36532
308.15 K, x1 = 0.297	1.37832	1.37533	1.37193	1.36911	1.36764	1.36759	1.36631	1.36601	1.36457
308.15 K, x1 = 0.2973	1.37852	1.37554	1.37215	1.36932	1.36785	1.3678	1.36653	1.36623	1.3648
308.15 K, x1 = 0.3068	1.37823	1.37525	1.3718	1.36857	1.36754	1.36751	1.36624	1.36594	1.36451
308.15 K, x1 = 0.398	1.37692	1.37394	1.37056	1.36775	1.36628	1.36623	1.36496	1.36466	1.36323
308.15 K, x1 = 0.4609	1.37625	1.37325	1.36987	1.36707	1.3656	1.36554	1.36427	1.36397	1.36254
308.15 K, x1 = 0.5434	1.37535	1.37238	1.36896	1.3662	1.36473	1.36467	1.36338	1.36309	1.36168
308.15 K, x1 = 0.6032	1.37466	1.3717	1.3683	1.3655	1.36404	1.36398	1.36271	1.36241	1.361
308.15 K, x1 = 0.6371	1.37427	1.37131	1.36792	1.36515	1.36369	1.36363	1.36235	1.36205	1.36064
308.15 K, x1 = 0.701	1.37352	1.37059	1.36722	1.36441	1.36297	1.36292	1.36166	1.36135	1.35993
308.15 K, x1 = 0.754	1.37312	1.37017	1.36681	1.36401	1.36256	1.36251	1.36125	1.36096	1.35954
308.15 K, x1 = 0.791	1.37271	1.36974	1.36638	1.36358	1.36215	1.36209	1.36085	1.36054	1.35911
308.15 K, x1 = 0.8296	1.37234	1.36938	1.36604	1.36323	1.36178	1.36173	1.36048	1.36018	1.35877
308.15 K, x1 = 0.8864	1.37212	1.36915	1.3658	1.363	1.36156	1.36151	1.36026	1.35996	1.35855
308.15 K, x1 = 0.8903	1.37167	1.36871	1.36535	1.36256	1.36111	1.36106	1.35981	1.35952	1.3581
308.15 K, x1 = 0.9113	1.37142	1.36847	1.36511	1.36232	1.36088	1.36082	1.35957	1.35928	1.35786
308.15 K, x1 = 0.9547	1.37095	1.36796	1.36465	1.36187	1.36041	1.36036	1.3591	1.3588	1.35741
308.15 K, x1 = 0.973	1.37062	1.36766	1.36431	1.36152	1.36008	1.36002	1.35877	1.35847	1.35707
308.15 K, x1 = 0.9771	1.37048	1.36752	1.36417	1.36139	1.35994	1.35989	1.35864	1.35835	1.35694
308.15 K, x1 = 1	1.37035	1.36739	1.36407	1.36127	1.35975	1.35983	1.35853	1.35823	1.35683
313.15 K, x1 = 0.0277	1.37904	1.37606	1.37269	1.36987	1.3684	–	–	–	–
313.15 K, x1 = 0.0507	1.37898	1.376	1.37262	1.3698	1.36833	–	–	–	–
313.15 K, x1 = 0.051	1.37891	1.37594	1.37256	1.36974	1.36828	–	–	–	–
313.15 K, x1 = 0.0717	1.37855	1.37558	1.37221	1.36939	1.36792	–	–	–	–
313.15 K, x1 = 0.1528	1.37787	1.3749	1.3715	1.36872	1.36724	–	–	–	–
313.15 K, x1 = 0.1553	1.37787	1.3749	1.3715	1.36872	1.36724	–	–	–	–
313.15 K, x1 = 0.1938	1.37761	1.37465	1.37126	1.36846	1.36699	–	–	–	–
313.15 K, x1 = 0.2029	1.37706	1.37411	1.37068	1.36791	1.36645	–	–	–	–
313.15 K, x1 = 0.245	1.37653	1.37358	1.37022	1.36743	1.36596	–	–	–	–
313.15 K, x1 = 0.297	1.37571	1.37276	1.36938	1.36658	1.36512	–	–	–	–
313.15 K, x1 = 0.2973	1.37596	1.37298	1.36959	1.36682	1.36535	–	–	–	–
313.15 K, x1 = 0.3068	1.37567	1.37271	1.36934	1.36655	1.36509	–	–	–	–
313.15 K, x1 = 0.398	1.37428	1.37134	1.36798	1.3652	1.36376	–	–	–	–
313.15 K, x1 = 0.4609	1.37355	1.3706	1.36724	1.36445	1.36302	–	–	–	–
313.15 K, x1 = 0.5434	1.37263	1.36967	1.36633	1.36354	–	–	–	–	–
313.15 K, x1 = 0.6032	1.37187	1.36891	1.36561	1.36281	–	–	–	–	–
313.15 K, x1 = 0.6371	1.37152	1.36856	1.36522	1.36243	–	–	–	–	–
313.15 K, x1 = 0.701	1.37074	1.36779	1.36447	1.36168	–	–	–	–	–
313.15 K, x1 = 0.754	1.3703	1.36737	1.36403	1.36126	–	–	–	–	–
313.15 K, x1 = 0.791	1.36988	1.36694	1.36363	1.36084	–	–	–	–	–
313.15 K, x1 = 0.8296	1.36948	1.36655	1.36322	1.36045	–	–	–	–	–
313.15 K, x1 = 0.8864	1.36937	1.36643	1.36308	1.36035	–	–	–	–	–
313.15 K, x1 = 0.8903	1.3688	1.36585	1.36252	1.35976	–	–	–	–	–
313.15 K, x1 = 0.9113	1.36853	1.3656	1.36228	1.35952	–	–	–	–	–
313.15 K, x1 = 0.9547	1.36805	1.36513	1.3618	1.35904	–	–	–	–	–
313.15 K, x1 = 0.973	1.36771	1.36481	1.36145	1.35868	–	–	–	–	–
313.15 K, x1 = 0.9771	1.36756	1.36465	1.36134	1.35856	–	–	–	–	–
313.15 K, x1 = 1	1.3674	1.36447	1.36119	1.35842	–	–	–	–	–
